biological target: human Nav1.7 (Homo sapiens (Human), UniProt Q15858); assay: FLIPR sodium dye assay (CoroNa Green AM Na+ dye, primary fluorescence assay); assay type: cell-based; settings: recombinant Nav1.7/HEK293 cells
Procedure: In vitro assays were performed in a recombinant cell line expressing cDNA encoding the alpha subunit (Nav1.7, SCN9a, PN1, NE) of human Nav1.7 (Accession No. NM_002977). The cell line was provided by investigators at Yale University (Cummins et al, J. Neurosci. 18(23): 9607-9619 (1998)). For dominant selection of the Nav1.7-expressing clones, the expression plasmid co-expressed the neomycin resistance gene. The cell line was constructed in the human embryonic kidney cell line, HEK293, under the influence of the CMV […] promoter, and stable clones were selected using limiting dilution cloning and antibiotic selection using the neomycin analogue, G418. Recombinant beta and gamma subunits were not introduced into this cell line. Additional cell lines expressing recombinant Nav1.7 cloned from other species can also be used, alone or in combination with various beta subunits, gamma subunits or chaperones.
Unless otherwise noted, cell culture reagents were purchased from Mediatech of Herndon, Va. The recombinant Nav1.7/HEK293 cells were routinely cultured in growth medium consisting of Dulbecco's […] essential medium containing 10% fetal bovine serum (FBS, Hyclone, Thermo Fisher Scientific, Logan, Utah), 100 U/mL penicillin, 100 μg/mL streptomycin, 2-4 mM L-glutamine, and […] G418. For natural, non-recombinant cell lines, the selective antibiotic was omitted, and additional media formulations can be applied as needed.
The final buffer consisted of 20 mM Hepes, pH 7.3, 1.261 mM CaCl2, 0.493 mM MgCl2, 0.407 mM Mg(SO)4, 5.33 mM KCl, 0.441 mM KH2PO4, 137 mM NaCl, 0.336 mM Na2HPO4 and […] D-glucose (Hanks et al., Proc. Soc. Exp. Biol. Med. 71:196 (1949)), and the simple formulation was typically the basic buffer throughout the assay (i.e., all wash and addition steps).
The fluorescence indicator used in the primary fluorescence assay was the cell permeant version of CoroNa™ Green (Invitrogen, Molecular Probes, Eugene, Oreg.), a dye that emits light in the fluorescence range (Harootunian et al., J. Biol. Chem. 264(32):19458-19467 (1989)). The intensity of this emission, but not the wavelength range, is increased when the dye is exposed to Na^+ ions, which it can bind with partial selectivity. Cells expressing Nav1.7 or other sodium channels were loaded with the CoroNa™ Green dye immediately in advance of the fluorescence assay, and then, after agonist stimulation, the mobilization of Na^+ ions was detected as the Na^+ ions flowed from the extracellular fluid into the cytoplasm through the activated sodium channel pores. The dye was stored in the dark as a lyophilized powder, and then an aliquot was dissolved immediately before the cell loading procedure, according to the instructions of the manufacturer, to a stock concentration of 10 mM in DMSO. It was then diluted in the assay buffer to a 4× concentrated working solution, so that the final concentration of dye in the cell loading buffer was 5 μM.
In the fluorescence assays, two agonists were used in combination, namely 1) veratridine; and 2) the venom from the yellow scorpion, Leiurus quinquestriatus hebraeus. Veratridine is an alkaloid small molecule that facilitates the capture of channel openings by inhibiting inactivation, and the scorpion venom is a natural preparation that includes peptide toxins selective for different subsets of voltage-gated sodium channels. These scorpion toxins inhibit the fast inactivation of their cognate target channels. Stock solutions of the agonists were prepared to 40 mM in DMSO (veratridine) and 1 mg/mL in dH2O (scorpion venom), and then diluted to make a 4× or 2× stock (depending on the particular assay) in assay buffer, the final concentration being 100 μM (veratridine) and 10 μg/mL (scorpion venom). Both of the agonists were purchased from Sigma Aldrich, St. Louis, Mo.
Test compounds were dissolved in DMSO to yield 10 mM stock solutions. […]

Chain of human Nav1.7 (Q15858 other isoform, or with tags, fused parts or gaps): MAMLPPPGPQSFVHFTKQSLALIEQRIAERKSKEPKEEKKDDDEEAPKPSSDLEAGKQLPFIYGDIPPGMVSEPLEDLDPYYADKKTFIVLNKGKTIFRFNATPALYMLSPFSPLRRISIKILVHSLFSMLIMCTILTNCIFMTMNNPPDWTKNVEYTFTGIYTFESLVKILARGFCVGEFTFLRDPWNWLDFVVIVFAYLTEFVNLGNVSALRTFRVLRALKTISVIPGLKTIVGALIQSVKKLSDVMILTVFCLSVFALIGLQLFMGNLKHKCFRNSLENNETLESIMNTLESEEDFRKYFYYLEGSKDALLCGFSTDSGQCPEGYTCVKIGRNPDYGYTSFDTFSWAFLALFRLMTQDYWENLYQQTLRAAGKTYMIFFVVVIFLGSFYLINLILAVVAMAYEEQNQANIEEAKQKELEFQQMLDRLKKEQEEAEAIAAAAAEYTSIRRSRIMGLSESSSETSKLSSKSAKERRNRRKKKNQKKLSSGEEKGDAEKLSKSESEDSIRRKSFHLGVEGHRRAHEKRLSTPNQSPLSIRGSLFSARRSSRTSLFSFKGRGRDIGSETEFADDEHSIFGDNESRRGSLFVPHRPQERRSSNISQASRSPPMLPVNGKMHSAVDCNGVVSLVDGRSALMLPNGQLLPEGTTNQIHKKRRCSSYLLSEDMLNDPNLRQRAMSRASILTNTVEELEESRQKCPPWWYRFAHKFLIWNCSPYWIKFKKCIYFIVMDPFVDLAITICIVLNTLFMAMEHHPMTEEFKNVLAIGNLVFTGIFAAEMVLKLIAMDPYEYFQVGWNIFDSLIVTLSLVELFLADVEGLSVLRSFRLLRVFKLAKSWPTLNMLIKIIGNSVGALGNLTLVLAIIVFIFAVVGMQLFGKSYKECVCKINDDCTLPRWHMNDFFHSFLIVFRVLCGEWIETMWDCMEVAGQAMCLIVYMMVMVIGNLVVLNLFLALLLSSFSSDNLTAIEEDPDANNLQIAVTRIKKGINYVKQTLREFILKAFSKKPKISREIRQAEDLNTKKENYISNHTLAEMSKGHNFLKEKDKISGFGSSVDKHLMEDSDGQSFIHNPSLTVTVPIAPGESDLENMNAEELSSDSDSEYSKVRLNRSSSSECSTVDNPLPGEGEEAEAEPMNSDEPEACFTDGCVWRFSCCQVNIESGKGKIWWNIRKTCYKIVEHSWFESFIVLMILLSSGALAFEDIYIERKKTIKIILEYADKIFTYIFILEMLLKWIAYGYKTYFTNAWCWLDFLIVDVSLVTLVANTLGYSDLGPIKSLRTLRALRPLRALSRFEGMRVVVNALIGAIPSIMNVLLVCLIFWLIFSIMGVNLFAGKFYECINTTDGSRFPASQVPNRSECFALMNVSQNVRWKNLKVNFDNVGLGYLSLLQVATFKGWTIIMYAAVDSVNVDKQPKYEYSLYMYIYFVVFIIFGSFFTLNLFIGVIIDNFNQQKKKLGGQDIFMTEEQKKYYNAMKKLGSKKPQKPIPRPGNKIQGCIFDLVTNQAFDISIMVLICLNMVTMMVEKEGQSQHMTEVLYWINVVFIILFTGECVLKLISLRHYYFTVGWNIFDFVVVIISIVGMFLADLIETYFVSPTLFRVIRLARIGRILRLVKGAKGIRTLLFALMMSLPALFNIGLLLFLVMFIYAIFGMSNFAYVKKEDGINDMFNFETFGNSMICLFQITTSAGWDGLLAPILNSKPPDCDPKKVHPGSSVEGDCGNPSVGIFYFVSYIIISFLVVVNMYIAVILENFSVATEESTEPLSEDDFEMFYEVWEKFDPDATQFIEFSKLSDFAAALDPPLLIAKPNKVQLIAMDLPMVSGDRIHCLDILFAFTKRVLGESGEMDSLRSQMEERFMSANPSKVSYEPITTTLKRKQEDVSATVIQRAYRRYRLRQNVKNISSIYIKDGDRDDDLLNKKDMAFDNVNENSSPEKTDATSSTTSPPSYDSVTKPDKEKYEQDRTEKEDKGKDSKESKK

Going from `NC(=O)c1cccc(-c2ccc(Oc3ccc(C(F)(F)F)cc3CNCCc3ccc(S(N)(=O)=O)cc3)cc2)n1` [compound 32, 6-(4-(2-(((4-sulfamoylphenethyl)-amino)methyl)-4-(trifluoro-methyl)phenoxy)phenyl)picolin-amide] to `CN(C)Cc1cc(C(F)(F)F)ccc1Oc1ccc(-c2cccc(C(N)=O)n2)cc1` [compound 39, 6-(4-(2-((dimethylamino)methyl)-4-(trifluoromethyl)phenoxy)-phenyl)picolinamide], the IC50 falls from 3.05 ± 0.942 µM to 0.179 ± 0.034 µM (17-fold). The second is the more potent here.

First: CNC(=O)c1cc(C(F)(F)F)ccc1Oc1ccc(-c2cccc(C(N)=O)n2)cc1 [compound 163, 6-(4-(2-(methylcarbamoyl)-4-(trifluoromethyl)phenoxy)phenyl) picolinamide]
Second: CCN(CC)C(=O)c1cc(C(F)(F)F)ccc1Oc1ccc(-c2cccc(C(N)=O)n2)cc1 [compound 164, 6-(4-(2-(diethylcarbamoyl)-4-(trifluoromethyl)phenoxy)phenyl) picolinamide]
The IC50 of the first is higher: over 20 µM for the first, 0.143 ± 0.023 µM for the second. The second is the more potent here.

`CCN(CCO)Cc1cc(C(F)(F)F)ccc1Oc1ccc(-c2cccc(C(N)=O)n2)cc1` [compound 119, 6-(4-(2-((ethyl(2-hydroxyethyl)amino)methyl)-4-(trifluoromethyl)phenoxy)phenyl) picolinamide] and `CCN(CCN(C)C)Cc1cc(C(F)(F)F)ccc1Oc1ccc(-c2cccc(C(N)=O)n2)cc1` [compound 120, 6-(4-(2-(((2-(dimethylamino)ethyl)(ethyl)amino)methyl)-4-(trifluoromethyl)phenoxy)phenyl) picolinamide] are within error of each other in IC50: 0.59 ± 0.092 µM for the first, 0.578 ± 0.098 µM for the second.

`OC[C@@H](O)c1ccnc(-c2ccc(Oc3ccc(C(F)(F)F)cc3CN3CCCC3)cc2)n1` [compound 116, (S)-1-(2-(4-(2-(pyrrolidin-1-ylmethyl)-4-(trifluoromethyl)phenoxy)phenyl)pyrimidin-4-yl)ethane-1,2-diol] and `OC[C@H](O)c1ccnc(-c2ccc(Oc3ccc(C(F)(F)F)cc3CN3CCCC3)cc2)n1` [compound 115, (R)-1-(2-(4-(2-(pyrrolidin-1-ylmethyl)-4-(trifluoromethyl)phenoxy)phenyl)pyrimidin-4-yl)ethane-1,2-diol] are within 1.5-fold of each other in IC50: 0.636 ± 0.065 µM for the first, 0.455 ± 0.067 µM for the second.

First: OC[C@@H](O)c1cccc(-c2ccc(Oc3ccc(F)cc3C(O)C(F)(F)F)cc2)n1 (stereo partly drawn) [compound 156, (1S)-1-(6-(4-(4-fluoro-2-(2,2,2-trifluoro-1-hydroxyethyl)-phenoxy)phenyl)pyridin-2-yl)ethane-1,2-diol]
Second: NC(=O)c1cccc(-c2ccc(Oc3ccc(F)cc3)c(C(F)(F)F)c2)n1 [compound 90, 6-(4-(4-fluorophenoxy)-3-(trifluoromethyl)phenyl)picolin-amide]
The IC50 of the first is lower: 1.29 ± 0.182 µM for the first, over 20 µM for the second.

First: NC(=O)c1cccc(-c2ccc(Oc3ccc(F)cc3)c(CN3CCOCC3)c2)n1 [compound 98, 6-(4-(4-fluorophenoxy)-3-(morpholinomethyl)phenyl)picolin-amide]
Second: NC(=O)c1cccc(-c2ccc(Oc3ccc(C(F)(F)F)cc3CN3CCC(N)C3)cc2)n1 (stereo not shown) [compound 60, 6-(4-(2-((3-aminopyrrolidin-1-yl)methyl)-4-(trifluoromethyl)-phenoxy)phenyl)picolinamide]
The IC50 of the first is 1.9-fold lower: 0.961 ± 0.07 µM for the first, 1.85 ± 0.361 µM for the second.

First: NC(=O)c1cccc(-c2ccc(Oc3ccc(F)cc3)c(-c3ccc(Cl)cc3)c2)n1 [compound 100, 6-(4′-chloro-6-(4-fluorophenoxy)-[1,1′-biphenyl]-3-yl)picolinamide]
Second: NC(=O)c1cccc(-c2ccc(Oc3ccc(F)cc3)c(COc3ccc(F)cc3)c2)n1 [compound 104, 6-(4-(4-fluorophenoxy)-3-((4-fluorophenoxy)methyl)phenyl) picolinamide]
The IC50 of the first is lower: 0.276 ± 0.063 µM for the first, over 20 µM for the second. The first is the more potent here.

First: CN1CCN(C(=O)c2cc(C(F)(F)F)ccc2Oc2ccc(-c3cccc(C(N)=O)n3)cc2)CC1 [compound 162, 6-(4-(2-(4-methylpiperazine-1-carbonyl)-4-(trifluoromethyl)phenoxy)phenyl)picolinamide]
Second: NC(=O)c1cccc(-c2ccc(Oc3ccc(C(F)(F)F)cc3C(C(N)=O)N3CCCCC3)cc2)n1 (stereo not shown) [compound 82, 6-(4-(2-(2-amino-2-oxo-1-(piperidin-1-yl)ethyl)-4-(trifluoromethyl)phenoxy)phenyl) picolinamide]
The IC50 of the first is 2.9-fold higher: 7.95 ± 0.402 µM for the first, 2.72 ± 0.264 µM for the second.

`NC(=O)c1cccc(-c2ccc(Oc3ccc(C(F)(F)F)cc3CN3CCC[C@@H]3CO)cc2)n1` [compound 42, (R)-6-(4-(2-((2-(hydroxyl-methyl)pyrrolidin-1-yl)methyl)-4-(trifluoromethyl)phenoxy)phenyl) picolinamide] and `NC(=O)c1cccc(-c2ccc(Oc3ccc(C(F)(F)F)cc3CN3CCC[C@H]3C(N)=O)cc2)n1` [compound 44, (S)-6-(4-(2-((2-carbamoyl-pyrrolidin-1-yl)methyl)-4-(trifluoromethyl)phenoxy)phenyl) picolinamide] are within error of each other in IC50: 1.17 ± 0.186 µM for the first, 1.16 ± 0.076 µM for the second.

Going from `NC(=O)c1cccc(-c2ccc(Oc3ccc(C(F)(F)F)c(CN4CCC4)c3)cc2)n1` [compound 53, 6-(4-(3-(azetidin-1-ylmethyl)-4-(trifluoromethyl)phenoxy)phenyl) picolinamide] to `NC(=O)c1cccc(-c2ccc(Oc3ccc(F)cc3)cc2C(F)(F)F)n1` [compound 91, 6-(4-(4-fluorophenoxy)-2-(trifluoromethyl)phenyl)picolin-amide], the IC50 rises from 0.384 ± 0.106 µM to 0.577 ± 0.056 µM (1.5-fold).

Going from `CCN(C)Cc1cc(C(F)(F)F)ccc1Oc1ccc(-c2cccc(C(N)=O)n2)cc1` [compound 117, 6-(4-(2-((ethyl(methyl)amino)methyl)-4-(trifluoromethyl)phenoxy)phenyl) picolinamide] to `CCN(CC)C(C(N)=O)c1cc(C(F)(F)F)ccc1Oc1ccc(-c2cccc(C(N)=O)n2)cc1` (stereo not shown) [compound 85, 6-(4-(2-(2-amino-1-(diethylamino)-2-oxoethyl)-4-(trifluoromethyl)phenoxy)phenyl) picolinamide], the IC50 rises from 0.066 ± 0.007 µM to 0.561 ± 0.024 µM (8.5-fold). The first is the more potent here.

`COc1ccc(-c2cc(C#N)ccc2Oc2ccc(-c3cccc(C(N)=O)n3)cc2)cn1` [compound 20, 6-(4-(4-cyano-2-(6-methoxypyridin-3-yl)phenoxy)phenyl)picolinamide] and `N#Cc1ccc(Oc2ccc(-c3cccc(C(N)=O)n3)cc2)c(-c2cccnc2)c1` [compound 16, 6-(4-(4-cyano-2-(pyridin-3-yl)phenoxy)phenyl)picolinamide] are within error of each other in IC50: 0.124 ± 0.016 µM for the first, 0.104 ± 0.02 µM for the second.

Compared with `NC(=O)c1cccc(-c2ccc(Oc3ccc(C(F)(F)F)cc3C(O)CN3CCNC(=O)C3)cc2)n1` (stereo not shown) [compound 79, 6-(4-(2-(1-hydroxy-2-(3-oxopiperazin-1-yl)ethyl)-4-(trifluoromethyl)phenoxy)phenyl) picolinamide], `N#Cc1ccc(Oc2ccc(-c3cccc(C(N)=O)n3)cc2)c(-c2ccsc2)c1` [compound 19, 6-(4-(4-cyano-2-(thiophen-3-yl)phenoxy)phenyl)picolinamide] is lower in IC50: over 20 µM for the first, 0.337 ± 0.006 µM for the second.

First: CN(Cc1cc(-c2cccc(C(N)=O)n2)ccc1Oc1ccc(F)cc1)c1ccc(C(=O)O)cc1 [compound 93, 4-((5-(6-carbamoylpyridin-2-yl)-2-(4-fluorophenoxy)benzyl)-(methyl)amino)benzoic acid]
Second: N#Cc1ccc(Oc2ccc(-c3cccc(C(N)=O)n3)cc2)cc1-c1ccncc1 [compound 26, 6-(4-(4-cyano-3-(pyridin-4-yl)phenoxy)phenyl)picolinamide]
The IC50 of the first is higher: over 20 µM for the first, 0.054 ± 0.005 µM for the second. The second is the more potent here.
